Laboratory results taken from paper PMC4182326, “Synthesis and Characterization of Novel 2-Amino-Chromene-Nitriles that Target Bcl-2 in Acute Myeloid Leukemia Cell Lines” (PLoS ONE, 2014).

How the values were obtained:
Bcl-2 [1] = target: T1, Bcl-2 (Homo sapiens, UniProt P10415); test: Zymed Bcl-2 ELISA; % inhibition of Bcl-2 binding to its antibody at […]
T1 construct: gene BCL2

Bcl-2 [2] = target: T1, Bcl-2; test: Zymed Bcl-2 ELISA; inhibition of Bcl-2 binding to its antibody

T1 sequence (P10415 whole entry): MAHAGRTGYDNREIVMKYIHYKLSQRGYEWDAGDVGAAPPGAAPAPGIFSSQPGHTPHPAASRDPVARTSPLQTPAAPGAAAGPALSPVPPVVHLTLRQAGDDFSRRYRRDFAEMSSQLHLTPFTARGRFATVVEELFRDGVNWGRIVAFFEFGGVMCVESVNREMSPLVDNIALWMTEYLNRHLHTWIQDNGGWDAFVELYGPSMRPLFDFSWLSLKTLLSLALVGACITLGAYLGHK

Compound	inhibition at 30 µM (Bcl-2 [1])	IC50 (Bcl-2 [2])
N#CC1=C(N)Oc2cc3ccccc3cc2C1c1cccc([N+](=O)[O-])c1 (stereo not shown) [4a, 2-amino-4-(3-nitrophenyl)-4H-benzo[g]chromene-3-carbonitrile]	37.8%	
N#CC1=C(N)Oc2cc3ccccc3cc2C1c1ccccc1[N+](=O)[O-] (stereo not shown) [4f, 2-amino-4-(2-nitrophenyl)-4H-benzo[g]chromene-3-carbonitrile]	61.9%	
N#CC1=C(N)Oc2cc3ccccc3cc2C1c1c(Cl)cccc1Cl (stereo not shown) [4g, 2-amino-4-(2,6-dichlorophenyl)-4H-benzo[g]chromene-3-carbonitrile]		17.8 µM
N#CC1=C(N)Oc2cc3ccccc3cc2C1c1ccc(F)cc1 (stereo not shown) [4h, 2-amino-4-(4-fluorophenyl)-4H-benzo[g]chromene-3-carbonitrile]	53%	
